Literature values in patent US20160279124A1, “Method for Treating Addiction” (priority 2015, published 2016).

System: opioid use
Conditions: clinic and office based medical detox and Naltrexone treatment: pill, injectable and implant; for opioid use

## O=C1CC[C@@]2(O)[C@H]3Cc4ccc(O)c5c4[C@@]2(CCN3CC2CC2)[C@H]1O5 [Naltrexone]
  Success: 8% for
